Tests used:
Experiment in all cases: combination Emax (second highest fraction inhibited in the dose matrix, 72 h); higher = more inhibition; extreme values may be limits of the assay
[1] = tested on: BV-173 (Chronic Myelogenous Leukemia)
Method in brief: (§1)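 Bliss excess equals the observed combination effect minus the expected value EA + EB − EA·EB, where EA and EB are the effects of each agent alone. Combination Emax is the second-highest inhibition within the matrix. Inhibition was scaled from CellTiter-Glo 2.0 luminescence, with 0 set by vehicle wells and 1 by blank wells, after 72 hours of two-drug dosing of cells plated in 1536-well plates.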

[2] = tested on: DG-75 (Burkitt's Lymphoma)
Method in brief: as §1

[3] = tested on: EMC-BAC-2 (Non-Small Cell Lung Carcinoma)
Method in brief: as §1

EW-13 (Ewing's Sarcoma) = tested on: EW-13 (Ewing's Sarcoma)
Method in brief: as §1

EW-18 (Ewing's Sarcoma) = tested on: EW-18 (Ewing's Sarcoma)
Method in brief: as §1

EW-3 (Ewing's Sarcoma) = tested on: EW-3 (Ewing's Sarcoma)
Method in brief: as §1

GI-1 (Glioblastoma) = tested on: GI-1 (Glioblastoma)
Method in brief: as §1

[4] = tested on: H-EMC-SS (Chondrosarcoma)
Method in brief: as §1

IMR-5 (Neuroblastoma) = tested on: IMR-5 (Neuroblastoma)
Method in brief: as §1

[5] = tested on: JHH-7 (Hepatocellular Carcinoma)
Method in brief: as §1

[6] = tested on: KP-2 (Pancreatic Carcinoma)
Method in brief: as §1

[7] = tested on: KYSE-50 (Esophageal Squamous Cell Carcinoma)
Method in brief: as §1

[8] = tested on: MFE-319 (Endometrial Carcinoma)
Method in brief: as §1

[9] = tested on: NCI-H1573 (Lung Adenocarcinoma)
Method in brief: as §1

[10] = tested on: NCI-H2347 (Lung Adenocarcinoma)
Method in brief: as §1

[11] = tested on: NCI-H2405 (Lung Adenocarcinoma)
Method in brief: as §1

[12] = tested on: OVISE (Ovarian Carcinoma)
Method in brief: as §1

[13] = tested on: SCC-3 (B-Cell Non-Hodgkin's Lymphoma)
Method in brief: as §1

[14] = tested on: SCC-9 (Oral Cavity Carcinoma)
Method in brief: as §1

[15] = tested on: SNU-C1 (Colorectal Carcinoma)
Method in brief: as §1

| SMILES | combination Emax [1] | combination Emax [2] | combination Emax [3] | combination Emax (EW-13 (Ewing's Sarcoma)) | combination Emax (EW-18 (Ewing's Sarcoma)) | combination Emax (EW-3 (Ewing's Sarcoma)) | combination Emax (GI-1 (Glioblastoma)) | combination Emax [4] | combination Emax (IMR-5 (Neuroblastoma)) | combination Emax [5] | combination Emax [6] | combination Emax [7] | combination Emax [8] | combination Emax [9] | combination Emax [10] | combination Emax [11] | combination Emax [12] | combination Emax [13] | combination Emax [14] | combination Emax [15] |
| --- | --- | --- | --- | --- | --- | --- | --- | --- | --- | --- | --- | --- | --- | --- | --- | --- | --- | --- | --- | --- |
| NC1(C(=O)N[C@@H](CCO)c2ccc(Cl)cc2)CCN(c2ncnc3[nH]ccc23)CC1 [Capivasertib] + CC(=O)c1c(C)c2cnc(Nc3ccc(N4CCNCC4)cn3)nc2n(C2CCCC2)c1=O [Palbociclib] (first compound max 10 µM, 7x7, partner max 10 µM) | 0.87 | 0.744 | 0.663 | 0.296 | 0.807 | 0.414 | 0.626 | 0.512 | 0.581 | 0.302 | 0.451 | 0.326 | 0.611 | 0.507 | 0.271 | 0.612 | 0.467 | 0.479 | 0.289 | 0.549 |
| Cn1cnc2c(F)c(Nc3ccc(Br)cc3Cl)c(C(=O)NOCCO)cc21 [Selumetinib] + CC(C)n1c(=O)n(C)c2cnc3cc(F)c(-c4ccc(OCCCN5CCCCC5)nc4)cc3c21 [AZD1390] (first compound max 10 µM, 7x7, partner max 0.3 µM) | 0.621 | 0.277 | 0.278 | 0.0488 | 0.28 | 0.104 | 0.216 | 0.197 | 0.173 | 0.262 | 0.463 | 0.21 | 0.154 | 0.264 | 0.308 | 0.364 | 0.184 | 0.369 | 0.379 | 0.635 |
| CN(CCO)CC[C@H](CSc1ccccc1)Nc1ccc(S(=O)(=O)NC(=O)c2ccc(N3CCC([C@@H](O)c4ccccc4-c4ccc(Cl)cc4)CC3)cc2)cc1S(=O)(=O)C(F)(F)F [AZD4320] + C[C@@H](Nc1cc(F)cc(F)c1)c1cc(C(=O)N(C)C)cc2c(=O)cc(N3CCOCC3)oc12 [AZD8186] (first compound max 1 µM, 7x7, partner max 3 µM) | 0.971 | 0.286 | 0.383 | 0.911 | 0.914 | 0.898 | 0.813 | 0.727 | 1 | 0.368 | 0.827 | 0.283 | 0.427 | 0.289 | 0.698 | 0.417 | 0.881 | 0.543 | 0.746 | 0.484 |
| Cc1cc2ncnn2cc1Nc1ncc2c(n1)n(C1CCOCC1)c(=O)n2C [AZD7648] + C[C@@H]1COCCN1C2=NC(=NC(=C2)C3(CC3)[S@](=N)(=O)C)C4=C5C=CNC5=NC=C4 [AZD6738] (first compound max 10 µM, 7x7, partner max 10 µM) | 0.97 | 0.885 | 0.513 | 0.564 | 0.636 | 0.755 | 0.888 | 0.475 | 0.951 | 0.369 | 0.0981 | 0.628 | 0.726 | 0.592 | 0.401 | 0.241 | 0.666 | 0.857 | 0.353 | 0.38 |
| CC(=O)c1c(C)c2cnc(Nc3ccc(N4CCNCC4)cn3)nc2n(C2CCCC2)c1=O [Palbociclib] + Cc1c2c(nn1C)CSCc1cc(n(C)n1)CSc1cc(c3ccccc3c1)OCCCc1c(C(=O)O)n(C)c3c-2c(Cl)ccc13 [AZD5991] (first compound max 10 µM, 7x7, partner max 1 µM) | 0.88 | 0.717 | 0.643 | 0.488 | 0.899 | 0.772 | 0.455 | 0.502 | 0.902 | 0.203 | 0.225 | 0.353 | 0.887 | 0.434 | 0.148 | 0.269 | 0.25 | 0.626 | 0.217 | 0.142 |
| Cn1cnc2c(F)c(Nc3ccc(Br)cc3Cl)c(C(=O)NOCCO)cc21 [Selumetinib] + C=CCn1c(=O)c2cnc(Nc3ccc(N4CCN(C)CC4)cc3)nc2n1-c1cccc(C(C)(C)O)n1 [AZD1775] (first compound max 10 µM, partner max 1 µM) | 0.925 | 0.634 | 0.412 | 0.0949 | 0.526 | 0.269 | 0.74 | 0.23 | 0.894 | 0.229 | 0.54 | 0.605 | 0.671 | 0.417 | 0.468 | 0.395 | 0.593 | 0.896 | 0.518 | 0.627 |
| COc1nnc2ccc(N3CCC(c4ccc(OCCN5CCN(C)C(=O)[C@H]5C)cc4)CC3)nn12 [AZD5153] + Cc1c2c(nn1C)CSCc1cc(n(C)n1)CSc1cc(c3ccccc3c1)OCCCc1c(C(=O)O)n(C)c3c-2c(Cl)ccc13 [AZD5991] (first compound max 1 µM, 7x7, partner max 1 µM) | 0.936 | 0.876 | 0.886 | 0.68 | 0.938 | 0.908 | 0.961 | 0.345 | 1 | 0.291 | 0.427 | 0.713 | 0.985 | 0.673 | 0.39 | 0.36 | 0.633 | 0.997 | 0.601 | 0.637 |
| CN(CCO)CC[C@H](CSc1ccccc1)Nc1ccc(S(=O)(=O)NC(=O)c2ccc(N3CCC([C@@H](O)c4ccccc4-c4ccc(Cl)cc4)CC3)cc2)cc1S(=O)(=O)C(F)(F)F [AZD4320] + Cn1cnc2c(F)c(Nc3ccc(Br)cc3Cl)c(C(=O)NOCCO)cc21 [Selumetinib] (first compound max 1 µM, 7x7, partner max 3 µM) | 0.963 | 0.206 | 0.416 | 0.933 | 0.881 | 0.906 | 0.801 | 0.691 | 0.994 | 0.276 | 0.962 | 0.239 | 0.522 | 0.4 | 0.68 | 0.572 | 0.786 | 0.546 | 0.67 | 0.944 |
| CC1(C)CCC(CN2CCN(c3ccc(C(=O)NS(=O)(=O)c4ccc(NCC5CCOCC5)c([N+](=O)[O-])c4)c(Oc4cnc5[nH]ccc5c4)c3)CC2)=C(c2ccc(Cl)cc2)C1 [Venetoclax] + C=CCn1c(=O)c2cnc(Nc3ccc(N4CCN(C)CC4)cc3)nc2n1-c1cccc(C(C)(C)O)n1 [AZD1775] (first compound max 1 µM, partner max 1 µM) | 0.941 | 0.833 | 0.404 | 0.129 | 0.587 | 0.819 | 0.902 | 0.223 | 0.924 | 0.349 | 0.364 | 0.647 | 0.858 | 0.31 | 0.291 | 0.169 | 0.669 | 0.903 | 0.294 | 0.555 |
| CN(C)CCCOc1ccc(-c2ccc3ncc4c(c3c2)n(C2CCOCC2)c(=O)n4C)cn1 [AZD0156] + C=CCn1c(=O)c2cnc(Nc3ccc(N4CCN(C)CC4)cc3)nc2n1-c1cccc(C(C)(C)O)n1 [AZD1775] (first compound max 1 µM, partner max 1 µM) | 0.995 | 0.759 | 0.304 | 0.444 | 0.556 | 0.357 | 0.88 | 0.346 | 0.741 | 0.136 | 0.147 | 0.27 | 0.63 | 0.159 | 0.335 | 0.0974 | 0.7 | 0.941 | 0.168 | 0.295 |
| CCN(CCO)CCCOc1ccc2c(Nc3cc(CC(=O)Nc4cccc(F)c4)[nH]n3)ncnc2c1 [AZD2811] + C[C@@H]1COCCN1C2=NC(=NC(=C2)C3(CC3)[S@](=N)(=O)C)C4=C5C=CNC5=NC=C4 [AZD6738] (first compound max 1 µM, 7x7, partner max 10 µM) | 0.994 | 0.841 | 0.459 | 0.638 | 0.743 | 0.724 | 0.922 | 0.412 | 1 | 0.275 | 0.12 | 0.507 | 0.668 | 0.479 | 0.343 | 0.26 | 0.663 | 0.973 | 0.336 | 0.435 |
| CC(=O)Nc1cccc(-n2c(=O)n(C3CC3)c(=O)c3c(Nc4ccc(I)cc4F)n(C)c(=O)c(C)c32)c1 [Trametinib] + Cc1nc(-c2cn3c(n2)-c2ccc(-c4cnn(C(C)(C)C(N)=O)c4)cc2OCC3)n(C(C)C)n1 [Taselisib] (first compound max 1 µM, 7x7, partner max 10 µM) | 0.854 | 0.307 | 0.945 | 0.262 | 0.637 | 0.364 | 0.766 | 0.991 | 0.368 | 0.429 | 0.74 | 0.757 | 0.799 | 0.89 | 0.618 | 0.665 | 0.696 | 0.736 | 0.954 | 0.79 |

— the supplement of paper PMC11061612
